Laboratory results published in US4692443A, “3-bicyclicpyridinium-methyl cephalosporins” (Eli Lilly and Company, priority 1984, dated 1987).
≈ marks a conversion by molar mass, not a printed value. Where two headings read alike, the source gives them in different places.

Experiments:
Format in all cases: cell-based
[1] = test system: Staph. aureus X1.1; test: standard in vitro agar dilution assay (MIC); conditions: Staphylococcus aureus
[2] = test system: Staph. aureus V41; test: standard in vitro agar dilution assay (MIC); conditions: Staphylococcus aureus
[3] = test system: Staph. aureus X400; test: standard in vitro agar dilution assay (MIC); conditions: Staphylococcus aureus; Staph. aureus strain X400
[4] = test system: Staph. aureus S13E; test: microbe, parasite or virus in culture; conditions: Staphylococcus aureus, read-out: Agar Dilution MIC
[5] = test system: Staph. epi EPI1; test: standard in vitro agar dilution assay (MIC); conditions: Staph. epi strain EPI1
[6] = test system: Staph. epi 222; test: standard in vitro agar dilution assay (MIC); conditions: Staph. epi strain 222
[7] = test system: Strep. A C203; test: standard in vitro agar dilution assay (MIC); conditions: Strep. A strain C203
[8] = test system: Strep. PN PARK; test: standard in vitro agar dilution assay (MIC); conditions: Strep. PN strain PARK
[9] = test system: Strep. D X66; test: standard in vitro agar dilution assay (MIC); conditions: Strep. D strain X66
[10] = test system: Strep. D 9960; test: standard in vitro agar dilution assay (MIC); conditions: Strep. D strain 9960
[11] = test system: H. influ. C.L.; test: standard in vitro agar dilution assay (MIC); conditions: read-out: Agar Dilution MIC
[12] = test system: Klebsiella X26; test: standard in vitro agar dilution assay (MIC)
[13] = test system: Klebsiella KAE; test: standard in vitro agar dilution assay (MIC); conditions: Klebsiella strain KAE; read-out: Agar Dilution MIC
[14] = test system: Enterobacter cloacae EB5; test: standard in vitro agar dilution assay (MIC)
[15] = test system: Salmonella X514; test: standard in vitro agar dilution assay (MIC)
[16] = test system: Pseudomonas X528; test: standard in vitro agar dilution assay (MIC); conditions: Pseudomonas strain X528
From the text: The antibacterial activity of several representative compounds of the invention has been evaluated in standard in vitro agar dilution assays. The following Table presents typical minimum inhibitory concentrations (MIC's) in μg /ml for exemplary compounds when evaluated against typical Gram + and Gram - microorganism.

[17] = test system: Pseudomonas X239; test: standard in vitro agar dilution assay (MIC); conditions: Pseudomonas strain X239
[18] = test system: Serratia X99; test: standard in vitro agar dilution assay (MIC)
[19] = test system: E. coli N10; test: standard in vitro agar dilution assay (MIC); conditions: Escherichia coli
[20] = test system: Klebsiella X68; test: standard in vitro agar dilution assay (MIC)
[21] = test system: Enterobacter aerogenes C32; test: standard in vitro agar dilution assay (MIC); conditions: Klebsiella aerogenes
[22] = test system: H. influ. 76; test: standard in vitro agar dilution assay (MIC); conditions: H. influ. strain 76; read-out: Agar Dilution MIC
[23] = test system: E. coli EC14; test: standard in vitro agar dilution assay (MIC); conditions: Escherichia coli
[24] = test system: E. coli TEM; test: standard in vitro agar dilution assay (MIC); conditions: Escherichia coli, read-out: Agar Dilution MIC
[25] = Staph. aureus strain V41, read-out: Agar Dilution MIC
[26] = Klebsiella strain X26, read-out: Agar Dilution MIC
[27] = Enterobacter cloacae, EB5, read-out: Agar Dilution MIC
[28] = Salmonella strain X514, read-out: Agar Dilution MIC
[29] = Serratia, X99, read-out: Agar Dilution MIC
[30] = Staph. aureus strain X1.1, read-out: Agar Dilution MIC
[31] = E. coli strain N10, read-out: Agar Dilution MIC
[32] = Klebsiella, X68, read-out: Agar Dilution MIC
[33] = C32, read-out: Agar Dilution MIC
[34] = E. coli strain EC14, read-out: Agar Dilution MIC
[35] = Klebsiella strain X68, read-out: Agar Dilution MIC
[36] = Enterobacter aerogenes strain C32, read-out: Agar Dilution MIC
[37] = Serratia strain X99, read-out: Agar Dilution MIC
[38] = EC14, read-out: Agar Dilution MIC

SMILES	MIC [2, 25] [µg/mL]	MIC [3] [µg/mL]	MIC [4] [µg/mL]	MIC [5] [µg/mL]	MIC [6] [µg/mL]	MIC [7] [µg/mL]	MIC [8] [µg/mL]	MIC [9] [µg/mL]	MIC [10] [µg/mL]	MIC [12, 26] [µg/mL]	MIC [13] [µg/mL]	MIC [14, 27] [µg/mL]	MIC [15, 28] [µg/mL]	MIC [16] [µg/mL]	MIC [17] [µg/mL]	MIC [18, 29] [µg/mL]	MIC [1, 30] [µg/mL]	MIC [19, 31] [µg/mL]	MIC [20, 32] [µg/mL]	MIC ([11]; H. influ. strain C.L.) [µg/mL]	further results
CO/N=C(\C(=O)NC1C(=O)N2C(C(=O)[O-])=C(C[n+]3ccc4oc(C)nc4c3)CSC12)c1csc(N)n1 (stereo not drawn) [Example 11, syn-7-[2-(2-aminothiazol-4-yl)-2-methoxyiminoacetamido]-3-(2-methyloxazolo[4,5-c]pyridinium-5-ylmethyl)-3-cephem-4-carboxylate]	8 (≈ 15.1 µM)	32 (≈ 60.4 µM)	8 (≈ 15.1 µM)	4 (≈ 7.55 µM)	1 (≈ 1.89 µM)	0.015 (≈ 0.0283 µM)	0.015 (≈ 0.0283 µM)	> 128	8 (≈ 15.1 µM)	0.015 (≈ 0.0283 µM)	4 (≈ 7.55 µM)	0.125 (≈ 0.236 µM)	0.03 (≈ 0.0567 µM)	4 (≈ 7.55 µM)	2 (≈ 3.78 µM)	0.125 (≈ 0.236 µM)					MIC ([1]; X1.1, read-out: Agar Dilution MIC): 0.5 µg/mL (≈ 0.944 µM); MIC [11]: 0.125 µg/mL (≈ 0.236 µM)
CO/N=C(\C(=O)NC1C(=O)N2C(C(=O)[O-])=C(C[n+]3ccc4[nH]c(-c5cccs5)nc4c3)CSC12)c1csc(N)n1 (stereo not drawn) [Example 8, syn-7-[2-(2-aminothiazol-4-yl)-2-methoxyiminoacetamido]-3-[2-(2-thienyl)-1H-imidazolo[4,5-c]pyridinium-5-ylmethyl)-3-cephem-4-carboxylate]	8 (≈ 13.4 µM)	32 (≈ 53.6 µM)	8 (≈ 13.4 µM)	4 (≈ 6.7 µM)	2 (≈ 3.35 µM)	< 0.008	< 0.008	> 128	4 (≈ 6.7 µM)	0.015 (≈ 0.0251 µM)	4 (≈ 6.7 µM)	0.5 (≈ 0.838 µM)	0.5 (≈ 0.838 µM)			0.5 (≈ 0.838 µM)	2 (≈ 3.35 µM)	1 (≈ 1.68 µM)	0.5 (≈ 0.838 µM)		MIC [11]: 0.25 µg/mL (≈ 0.419 µM); MIC [21, 33]: 0.5 µg/mL (≈ 0.838 µM)
CO/N=C(\C(=O)NC1C(=O)N2C(C(=O)[O-])=C(C[n+]3ccc4[nH]c(C)nc4c3)CSC12)c1csc(N)n1 (stereo not drawn) [Example 5, syn-7-[2-(2-aminothiazol-4-yl)-2-methoxyiminoacetamido]-3-(2-methyl-1H-imidazolo[4,5-c]pyridinium-5-ylmethyl)-3-cephem-4-carboxylate]	8 (≈ 15.1 µM)	32 (≈ 60.5 µM)	8 (≈ 15.1 µM)	4 (≈ 7.57 µM)	1 (≈ 1.89 µM)	< 0.008	< 0.008	> 128	8 (≈ 15.1 µM)	< 0.008	2 (≈ 3.78 µM)		< 0.008	2 (≈ 3.78 µM)	2 (≈ 3.78 µM)		2 (≈ 3.78 µM)	0.03 (≈ 0.0568 µM)		0.015 (≈ 0.0284 µM)	MIC [22]: 0.015 µg/mL (≈ 0.0284 µM); MIC [23, 34]: < 0.008 µg/mL; MIC ([24]; E. coli strain TEM): < 0.008 µg/mL; MIC [20, 35]: 0.015 µg/mL (≈ 0.0284 µM); MIC [21, 36]: 0.03 µg/mL (≈ 0.0568 µM); MIC [18, 37]: 0.03 µg/mL (≈ 0.0568 µM)
CO/N=C(\C(=O)NC1C(=O)N2C(C(=O)[O-])=C(C[n+]3ccc4[nH]c(-c5ccccc5)nc4c3)CSC12)c1csc(N)n1 (stereo not drawn) [Example 9, syn-7-[2-(2-aminothiazol-4-yl)-2-methoxyiminoacetamido]-3-(2-phenyl-1H-imidazolo[4,5-c]pyridinium-5-ylmethyl)-3-cephem-4-carboxylate]	8 (≈ 13.5 µM)	32 (≈ 54.2 µM)	8 (≈ 13.5 µM)	4 (≈ 6.77 µM)	2 (≈ 3.39 µM)	< 0.008	< 0.008	> 128	4 (≈ 6.77 µM)	0.015 (≈ 0.0254 µM)	2 (≈ 3.39 µM)	0.5 (≈ 0.847 µM)	0.5 (≈ 0.847 µM)				2 (≈ 3.39 µM)	1 (≈ 1.69 µM)	0.5 (≈ 0.847 µM)	0.5 (≈ 0.847 µM)	MIC [23, 38]: 0.125 µg/mL (≈ 0.212 µM); MIC [21, 33]: 0.5 µg/mL (≈ 0.847 µM); MIC [18, 37]: 1 µg/mL (≈ 1.69 µM)
CO/N=C(\C(=O)NC1C(=O)N2C(C(=O)[O-])=C(C[n+]3ccc4c(c3)ncn4C)CSC12)c1csc(N)n1 (stereo not drawn) [Example 4, syn-7-[2-(2-aminothiazol-4-yl)-2-methoxyiminoacetamido]-3-(1-methyl-1H-imidazolo[4,5-c]pyridinium-5-ylmethyl)-3-cephem-4-carboxylate]	8 (≈ 15.1 µM)	64 (≈ 121 µM)	8 (≈ 15.1 µM)	2 (≈ 3.78 µM)	1 (≈ 1.89 µM)	0.15 (≈ 0.284 µM)	0.15 (≈ 0.284 µM)	> 128	2 (≈ 3.78 µM)	0.015 (≈ 0.0284 µM)	4 (≈ 7.57 µM)			1 (≈ 1.89 µM)	2 (≈ 3.78 µM)		1 (≈ 1.89 µM)	0.03 (≈ 0.0568 µM)			MIC [23, 34]: < 0.008 µg/mL; MIC ([24]; E. coli strain TEM): 0.015 µg/mL (≈ 0.0284 µM); MIC [20, 35]: 0.015 µg/mL (≈ 0.0284 µM); MIC [21, 36]: 0.03 µg/mL (≈ 0.0568 µM); MIC ([14]; Enterobacter cloacae strain EB5, read-out: Agar Dilution MIC): 0.03 µg/mL (≈ 0.0568 µM); MIC ([15]; Salmonella, X514, read-out: Agar Dilution MIC): 0.05 µg/mL (≈ 0.0946 µM)
CC(C)(O/N=C(\C(=O)NC1C(=O)N2C(C(=O)[O-])=C(C[n+]3ccc4[nH]cnc4c3)CSC12)c1csc(N)n1)C(=O)O (stereo not drawn) [Example 1, syn-7-[2-(2-Aminothiazol-4-yl)-2-(2-carboxyprop-2-yl)oxyiminoacetamido]-3-(1H-imidazolo[4,5c]pyridinium-5-ylmethyl)-3-cephem-4-carboxylate]		128 (≈ 218 µM)	32 (≈ 54.6 µM)	32 (≈ 54.6 µM)	16 (≈ 27.3 µM)			> 128	16 (≈ 27.3 µM)		1 (≈ 1.7 µM)	0.25 (≈ 0.426 µM)	0.5 (≈ 0.852 µM)	8 (≈ 13.6 µM)	2 (≈ 3.41 µM)	0.5 (≈ 0.852 µM)	8 (≈ 13.6 µM)		0.125 (≈ 0.213 µM)	0.03 (≈ 0.0511 µM)	MIC ([2]; V41, read-out: Agar Dilution MIC): 32 µg/mL (≈ 54.6 µM); MIC ([19]; N10, read-out: Agar Dilution MIC): 0.5 µg/mL (≈ 0.852 µM); MIC [23, 38]: 0.125 µg/mL (≈ 0.213 µM); MIC [24]: 0.125 µg/mL (≈ 0.213 µM); MIC ([12]; Klebsiella, X26, read-out: Agar Dilution MIC): 0.125 µg/mL (≈ 0.213 µM); MIC [21, 36]: 1 µg/mL (≈ 1.7 µM)
